Earlier results as cited in patent US20210113536A1, “METHODS AND COMPOSITIONS FOR DETECTING AND TREATING VENOUS THROMBOEMBOLISM” (United States Government As Represented By The Department …, priority 2019, published 2021).

Tested on: asymptomatic participants
Conditions: 20 mg of rosuvastatin, JUPITER trial

**Q.** Which “occurrence of symptomatic VTE” value does the source give for `CC(C)c1nc(N(C)S(C)(=O)=O)nc(-c2ccc(F)cc2)c1/C=C/[C@@H](O)C[C@@H](O)CC(=O)O` [rosuvastatin] here?
**A.** reduced occurrence of symptomatic VTE
